Measurements reported in patent US6632829B2, “Sulfonamides and derivatives thereof that modulate the activity of endothelin” (Texas Biotechnology Corp., priority 1996, dated 2003).

Key:
human ETA receptors = target: T1, human ETA receptors (Homo sapiens, UniProt P25101); test: Endothelin binding inhibition, Binding Test #1: competition with 125I-ET-1 for ETA receptors on TE 671 cell membranes
T1 construct: endogenous in cells; host or cells: TE 671 cells (ATCC HTB 139), membrane preparation
T1 sequence (P25101 21-427): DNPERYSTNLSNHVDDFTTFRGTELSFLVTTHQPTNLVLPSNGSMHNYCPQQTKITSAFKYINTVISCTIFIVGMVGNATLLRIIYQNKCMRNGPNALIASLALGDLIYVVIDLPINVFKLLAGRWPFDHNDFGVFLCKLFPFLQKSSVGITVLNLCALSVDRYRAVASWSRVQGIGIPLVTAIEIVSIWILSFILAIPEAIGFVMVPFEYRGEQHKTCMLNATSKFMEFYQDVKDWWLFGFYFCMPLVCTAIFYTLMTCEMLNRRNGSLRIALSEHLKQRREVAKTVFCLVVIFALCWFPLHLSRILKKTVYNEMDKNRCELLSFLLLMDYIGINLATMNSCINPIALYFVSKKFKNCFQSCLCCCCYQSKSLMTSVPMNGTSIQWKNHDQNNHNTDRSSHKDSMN
Protocol: (§1) Cells from multiple flasks were collected by scraping, pooled and centrifuged for 10 min at 190×g. The cells were resuspended in phosphate buffered saline (PBS) containing 10 mM EDTA using a Tenbroeck homogenizer. The suspension was centrifuged at 4° C. at 57,800×g for 15 min, the pellet was resuspended in 5 mL of buffer A (5 mM HEPES buffer, pH 7.4 containing aprotinin (100 KIU/mL)) and then frozen and thawed once. 5 mL of Buffer B (5 mM HEPES Buffer, pH 7.4 containing 10 mM MnCl2 and 0.001% deoxyribonuclease Type 1) was added, the suspension mixed by inversion and then incubated at 37° C. for 30 minutes. The mixture was centrifuged at 57,800×g as described above, the pellet washed twice with buffer A and then resuspended in buffer C (30 mM HEPES buffer, pH 7.4 containing aprotinin (100 KIU/mL) to give a final protein concentration of 2 mg/mL and stored at −70° C. until use.
The membrane suspension (50 μL), containing up to 8 μg of membrane protein, was added to each of (A), (B), or (C). […] Alternatively, the incubation was conducted at 24° C.
The supernatant, containing unbound radioactivity, was decanted and the pellet counted on a Genesys multiwell gamma counter. The degree of inhibition of binding (D) was calculated according to the following equation: [formula]
Each test was generally performed in triplicate.

human ETB receptor = target: T2, human ETB receptor (Homo sapiens, UniProt P24530); test: Endothelin binding inhibition, Binding Test #2: competition with 125I-ET-1 for ETB receptors on transfected COS7 cell membranes; conditions: for inhibition at 100 µM: read-out: ETB % inhibition @ 100 μM, @ 100 μM, incubation at 24° C.
T2 construct: expressed in transfected cells; host or cells: COS7 cells
T2 sequence (P24530 27-442): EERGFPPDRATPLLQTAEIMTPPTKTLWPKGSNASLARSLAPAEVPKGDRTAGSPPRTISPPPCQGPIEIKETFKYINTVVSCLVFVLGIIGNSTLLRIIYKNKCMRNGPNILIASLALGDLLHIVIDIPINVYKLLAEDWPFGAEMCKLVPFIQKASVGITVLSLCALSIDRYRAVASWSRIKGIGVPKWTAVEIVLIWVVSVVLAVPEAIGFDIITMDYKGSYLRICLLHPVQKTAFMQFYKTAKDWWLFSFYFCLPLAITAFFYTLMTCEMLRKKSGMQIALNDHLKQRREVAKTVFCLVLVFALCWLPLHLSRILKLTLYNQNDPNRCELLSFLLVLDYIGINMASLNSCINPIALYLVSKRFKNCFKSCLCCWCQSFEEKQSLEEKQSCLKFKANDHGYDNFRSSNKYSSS
From the text: Compounds that are potential endothelin antagonists are identified by testing their ability to compete with ^125I-labeled ET-1 for binding to human ETA receptors or ETB receptors present on isolated cell membranes. The effectiveness of the test compound as an antagonist or agonist of the biological tissue response of endothelin can also be assessed by measuring the effect on endothelin induced contraction of isolated rat thoracic aortic rings. The ability of the compounds to act as antagonists or agonists for ETB receptors can be assess by testing the ability of the compounds are to inhibit endothelin-1 induced prostacyclin release from cultured bovine aortic endothelial cells.
COS7 cells were transfected with DNA encoding the ETB receptor, The resulting cells, which express the human ETB receptor, were grown to confluence in T-150 flasks. Membrane was prepared as described above. The binding assay was performed as described above using the membrane preparation diluted with binding buffer to a concentration of 1 μg/50 μL.
as §1, with “Briefly, the COS7 cells, described above, that had been transfected with DNA encoding the ETB receptor and express the human ETB receptor on their surfaces were grown to confluence in T-175 flasks. Cells” for “Cells”, “C.” for “C. at”, “once. Five” for “once. 5”, “2 mg/mL.” for “2 mg/mL and stored at −70° C. until use.”
The binding assay was performed as described above using the membrane preparation diluted to give 1 μg/50 μL of binding buffer.

[1] = incubation at 24° C. (values marked †)
[2] = incubation at 4° C. (values without †)

| Molecule | IC50 (human ETA receptors; [1]) [nM] | IC50 (human ETB receptor; [1]) [µM] | IC50 (human ETA receptors; [2]) [nM] | IC50 (human ETB receptor; [2]) [µM] | inhibition at 100 µM (human ETB receptor) [%] |
| --- | --- | --- | --- | --- | --- |
| 3-[N-(Benzo-2,1,3-thiadiazol-5-yl)aminosulfonyl]thiophene-2-carboxylic acid, 3-cyanomethyl-2,4,6-trimethylanilide | 0.66 | 9.55 | – | – | – |
| Cc1cc(C)c(CNC(=O)c2sccc2S(=O)(=O)Nc2onc(C)c2Cl)c(C)c1CC#N [N-4-chloro-3-methyl-5-isoxazolyl)-2-(3-cyanomethyl-2,4,6-trimethylbenzylaminocarbonyl)thiophene-3-sulfonamide] | 531 | 81.5 | – | – | – |
| COc1cccc(NCc2sccc2S(=O)(=O)Nc2onc(C)c2C)c1 [N-(3,4-dimethyl-5-isoxazolyl))-2-[(3-methoxyanilino)methyl]thiophene-3-sulfonamide] | 933 | 7.7 | 214 | 5.34 | – |
| Cc1noc(NS(=O)(=O)c2sccc2C(=O)Nc2ccccc2)c1C [N-(3,4-dimethyl-5-isoxazolyl))-3-(phenylaminocarbonyl)thiophene-2-sulfonamide] | – | – | 163 | > 100 | – |
| Cc1ccc(CC(=O)c2sccc2S(=O)(=O)Nc2onc(C)c2C)c(C)c1 [N-(3,4-dimethyl-5-isoxazolyl)-2-(2,4-dimethylphenylacetyl)thiophene-3-sulfonamide] | 2.7 | 17.4 | – | – | – |
| CC(=O)OCc1c(C)cc(C)c(NC(=O)c2sccc2S(=O)(=O)Nc2onc(C)c2C)c1C [N-(3,4-dimethyl-5-isoxazolyl)-2-(3-acetoxymethyl-2,4,6-trimethylphenylaminocarbonyl)thiophene-3-sulfonamide] | 0.97 | 156 | – | – | – |
| Cc1cc(C)c(NC(=O)c2sccc2S(=O)(=O)Nc2onc(C)c2C)c(C)c1CO [N-(3,4-dimethyl-5-isoxazolyl)-2-(3-hydroxymethyl-2,4,6-trimethylphenylaminocarbonyl)thiophene-3-sulfonamide] | 1.11 | 33.8 | – | – | – |
| Cc1noc(NS(=O)(=O)c2c(Cc3ccc(Cl)cc3)sc3ccccc23)c1C [N-(3,4-dimethyl-5-isoxazolyl)-2-(4-chlorobenzyl)benzo[b]thiophene-3-sulfonamide] | 210 | 4.7 | – | – | – |
| Cc1noc(NS(=O)(=O)c2ccsc2C(=O)Oc2ccccc2)c1C [N-(3,4-dimethyl-5-isoxazolyl)-2-(phenoxycarbonyl)thiophene-3-sulfonamide] | 2850 | – | – | – | 31 |
| Cc1cc2c(cc1CC(=O)c1sccc1S(=O)(=O)Nc1onc(C)c1C)OCO2 [N-(3,4-dimethyl-5-isoxazolyl)-2-[2-methyl-4,5-(methylenedioxy)phenylacetyl]thiophene-3-sulfonamide] | 3.28 | 34.3 | – | – | – |
| Cc1noc(NS(=O)(=O)c2ccsc2C(=O)Oc2ccc3c(c2)OCO3)c1C [N-(3,4-dimethyl-5-isoxazolyl)-2-[3,4-(methylenedioxy)phenoxycarbonyl]thiophene-3-sulfonamide] | – | > 50 | – | – | – |
| Cc1noc(NS(=O)(=O)c2ccsc2C(=O)Cc2ccc3c(c2)OCO3)c1C [N-(3,4-dimethyl-5-isoxazolyl)-2-[3,4-(methylenedioxy)phenylacetyl]thiophene-3-sulfonamide] | 27.3 | 12.2 | – | – | – |
| Cc1cc(C)c(OC(=O)c2sccc2S(=O)(=O)Nc2onc(C)c2C)c(C)c1 [N-(3,4-dimethyl-5-isoxazolyl)-2-[(2,4,6-trimethylphenoxy)carbonyl]thiophene-3-sulfonamide] | 537 | – | – | – | 8 |
| Cc1ccc(OC(=O)c2sccc2S(=O)(=O)Nc2onc(C)c2C)c(C)c1 [N-(3,4-dimethyl-5-isoxazolyl)-2-[(2,4-dimethylphenoxy)carbonyl]thiophene-3-sulfonamide] | 274 | – | – | – | 21 |
| Cc1ccc(NC(=O)c2sccc2S(=O)(=O)Nc2onc(C)c2C)cc1 [N-(3,4-dimethyl-5-isoxazolyl)-2-[(4-methylphenyl)aminocarbonyl]thiophene-3-sulfonamide] | – | – | 3.36 | 11.3 | – |
| Cc1noc(NS(=O)(=O)c2c(C)sc3ccccc23)c1C [N-(3,4-dimethyl-5-isoxazolyl)-2-methylbenzo[b]thiophene-3-sulfonamide] | – | – | 167 | 16.6 | – |
| Cc1noc(NS(=O)(=O)c2ccsc2C(=O)Oc2ccc3c(c2)OCO3)c1C [N-(3,4-dimethyl-5-isoxazolyl)-2-{(3,4-(methylenedioxy)phenoxy]carbonyl}thiophene-3-sulfonamide] | 3610 | – | – | – | 30 |
| Cc1cc(C)c(CCc2sccc2S(=O)(=O)Nc2onc(C)c2Br)c(C)c1 [N-(4-bromo-3-methyl-5-isoxazolyl)-2-(2,4,6-trimethylphenethyl)thiophene-3-sulfonamide] | 41.7 | 1.23 | – | – | – |
| Cc1ccc(CCc2sccc2S(=O)(=O)Nc2onc(C)c2Br)c(C)c1 [N-(4-bromo-3-methyl-5-isoxazolyl)-2-(2,4-dimethylphenethyl)thiophene-3-sulfonamide] | 55.5 | 3.48 | – | – | – |
| Cc1noc(NS(=O)(=O)c2ccsc2C(=O)c2ccc3c(c2)OCO3)c1Br [N-(4-bromo-3-methyl-5-isoxazolyl)-2-[(3,4-methylenedioxy)benzoyl]thiophene-3-sulfonamide] | – | 15 | – | – | – |
| Cc1ccc(OC(=O)c2sccc2S(=O)(=O)Nc2onc(C)c2Br)cc1 [N-(4-bromo-3-methyl-5-isoxazolyl)-2-[(4-methylphenoxy)carbonyl]thiophene-3-sulfonamide] | – | 9.7 | – | – | – |
| Cc1noc(NS(=O)(=O)c2ccsc2COc2ccc3c(c2)OCO3)c1Br [N-(4-bromo-3-methyl-5-isoxazolyl)-2-{[3,4-(methylenedioxy)phenoxy]methyl}thiophene-3-sulfonamide] | – | 6.61 | – | – | – |
| CC(=O)c1cc2c(cc1NC(=O)c1sccc1S(=O)(=O)Nc1onc(C)c1Cl)OCO2 [N-(4-chloro-3-methyl-5-isoxazolyl)2-{[2-acetyl-4,5-(methylenedioxy)phenyl]aminocarbonyl}thiophene-3-sulfonamide] | – | 31.6 | – | – | – |
| Cc1cc(C)c(CNC(=O)c2sccc2S(=O)(=O)Nc2onc(C)c2Cl)c(C)c1 [N-(4-chloro-3-methyl-5-isoxazolyl)-2-(2,4,6-trimethylbenzylaminocarbonyl)thiophene-3-sulfonamide] | – | 69.2 | – | – | – |
| Cc1cc(C)c(NC(=O)c2sccc2S(=O)(=O)Nc2onc(C)c2Cl)c(C(N)=O)c1 [N-(4-chloro-3-methyl-5-isoxazolyl)-2-(2-carbamoyl-4,6-dimethylphenylaminocarbonyl)thiophene-3-sulfonamide] | – | 11.9 | – | – | – |
